Reference: US20180045715A1, “STRUCTURE AND FUNCTION OF THE SALICYCLIC ACID BINDING SITES ON HUMAN HMGB1 AND METHODS OF USE THEREOF FOR THE RATIONAL DESIGN OF BOTH SALICYCLIC ACID DERIVATIVES AND OTHER AGENTS THAT ALTER ANIMAL AND PLANT HMGBS ACTIVITIES” (Boyce Thompson Institute for Plant Research, Inc., priority 2015, published 2018)
“Also recorded” adds a separate entry of the source.

Assays:
[1] = tested on: fMLP-induced migration of NIH/3T3 fibroblast cells; assay: Chemotaxis assay: fMLP-induced fibroblast migration (specificity control); format: cell-based, mouse; details: 0.1 nM fMLP
Experimental: (§1) Cell migration was assayed using Boyden chambers (Venereau et al., 2012). The downside of PVP-free polycarbonate filters (8 μm pores; Millipore) was coated with 50 μg/ml fibronectin (Sigma). Serum-free DMEM (negative control), DMEM containing 0.1 nM fMLP (positive control; Sigma), or DMEM containing 1 nM HMGB1^RE or HMGB1^SS were placed in the lower chamber, together with different concentrations of SA (Sigma). The mouse 3T3 fibroblast cells were cultured in DMEM media supplemented with 10% CS until 90% confluence, washed twice with PBS to eliminate any floating cells, and harvested with trypsin. 50,000 cells in 200 μL were added to the upper chamber, and cells were left to migrate for 3 h at 37° C. Non-migrating cells were removed with a cotton swab, and migrated cells were fixed with ethanol and stained with Giemsa.
HMGB1^RE acts as a chemo-attractant that mediates migration of several cell types, including monocytes, fibroblasts, mesoangioblasts, smooth muscle cells, and colon cancer cells (Venereau et al., 2012). To determine whether SA alters HMGB 1's chemo-attractant activity, a chemotaxis assay was performed with mouse 3T3 fibroblasts.

HMGB1^SS = molecular target: T1, HMGB1^SS (Homo sapiens, UniProt P09429); assay: HMGB1^SS-induced cytokine and COX-2 gene expression in human macrophages (qPCR); format: cell-based; details: 3 h, 100 μM SA or 1 μM ac3AESA
T1 construct: (i) full length: residues 2-215; 6x His (cleaved yes); made in house; host or cells: Escherichia coli BL21
T1 sequence (P09429 2-215): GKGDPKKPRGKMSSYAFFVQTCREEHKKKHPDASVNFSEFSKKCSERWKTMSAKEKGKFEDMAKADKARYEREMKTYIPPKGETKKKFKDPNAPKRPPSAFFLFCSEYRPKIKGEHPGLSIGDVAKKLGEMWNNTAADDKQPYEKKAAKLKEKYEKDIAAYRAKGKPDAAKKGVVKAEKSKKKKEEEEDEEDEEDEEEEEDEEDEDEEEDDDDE
Experimental: (§2) Human HeLa cells were grown in T75 flasks in DMEM medium supplemented with penicillin (10,000 IU/mL) streptomycin ([…]), and 10% fetal calf serum. Ptgs2−/− MEFs were derived from Ptgs2−/− E16 mouse embryos, obtained from the mating of Ptgs2+/− mice purchased from Taconic Biosciences. PBMCs were isolated from buffy coats of donor blood (Hospital of Magenta, Milan, Italy) by Ficoll gradient centrifugation (Lymphoprep; AXIS-SHIELD. CD14+ monocytes were isolated by positive immunoselection (CD14 Microbeads; Miltenyi Biotec) according to the manufacturer's instructions, and differentiated into macrophages using X-Vivo medium supplemented with 1% heat inactivated human serum, GM-CSF, and M-CSF.
Macrophages were exposed to 3 μg/ml HMGB1^SS or 50 ng/ml LPS. Total RNAs were isolated using the Illustra RNAspin Mini kit (GE Healthcare), and complementary DNA (cDNA) was obtained by retro-transcription with oligo(dT) primers (Invitrogen, Carlsbad, Calif., USA) and SuperScript II Reverse Transcriptase (Invitrogen) following the manufacturers' instructions. Quantitative real-time PCR was performed using a LightCycler480 (Roche Molecular Diagnostics), in duplicates, using SYBR Green I master mix and the oligonucleotides listed in Table of primers below. The ΔCt method was used for quantification, and the β-actin gene was used for normalization.

Pep1 = assay: Callose staining: Pep1-induced callose deposition in Arabidopsis leaves; format: in vivo, Arabidopsis thaliana; details: 100 nM Pep1, 15 h
Experimental: (§3) Arabidopsis leaves were collected 15 h after infiltration with 100 nM AtHMGB3 or 100 nM Pep1, and then immediately immersed in alcoholic lactophenol (phenol:glycerol:lactic acid:water:ethanol=1:1:1:1:8) to destain the chlorophyll. To remove the background fluorescence, destained leaves were treated with toluidine blue O solution (0.05% toluidine blue O, 0.1 M sodium acetate, pH 4.4) for 30 min, and then rinsed twice with 150 mM K2HPO4 (pH 9.5). Callose was stained with aniline blue solution (0.02% aniline blue, 150 mM K2HPO4, pH 9.5) for 30 min in the absence of light. The aniline blue-stained leaves were mounted with 25% glycerol and analyzed using a Leica DM5500 epifluorescence microscope. The number of callose loci was quantified using an ImageJ (NIH).

HMGB1 [2] = molecular target: T2, HMGB1 (Homo sapiens, UniProt P09429); assay: Photoaffinity labeling of HMGB1 with 4AzSA, competition by SA; format: binding; details: 0.1 mM 4AzSA, increasing concentrations of SA
T2 construct: (i) full length: residues 2-215; 6x His (cleaved yes); made in house; host or cells: Escherichia coli BL21
T2 sequence (P09429 2-215): T1 sequence (P09429 2-215)
Experimental: HMGB1's SA-binding activity was then assessed using photoaffinity-crosslinking. Recombinant HMGB1 was pre-incubated with or without photoreactive 4-azido SA (4AzSA) before exposure to UV irradiation (FIG. 1B).

HMGB1 [3] = molecular target: T2, HMGB1; assay: Cell migration assay with mouse embryonic fibroblasts, WT or Ptgs2-/-; format: cell-based; details: dose-dependent, both WT and Ptgs2−/− MEFs
Experimental: as §2
as §1, with “50,000 cells in 200 μL were added to the upper chamber, and cells were left to migrate for 3 h at 37° C. Non-migrating cells were removed with a cotton swab, and migrated cells were fixed with ethanol and stained with Giemsa.” left out

R50A/K54A mutant AtHMGB3 = molecular target: T3, R50A/K54A mutant AtHMGB3 (Arabidopsis thaliana, UniProt P93047, K54A/R50A); assay: Callose deposition with mutant R50A/K54A AtHMGB3; details: in vivo
T3 construct: providing a full length Arabidopsis thaliana HMGB1 or HMGB3 (AtHMGB1 or AtHMGB3) protein; made in house
T3 sequence (P93047 whole entry R50A/K54A): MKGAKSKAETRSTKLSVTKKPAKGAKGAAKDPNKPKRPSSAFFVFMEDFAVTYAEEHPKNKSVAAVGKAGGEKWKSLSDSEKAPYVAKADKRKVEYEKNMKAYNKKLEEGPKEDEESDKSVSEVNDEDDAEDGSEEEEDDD
Experimental: as §3
Thus, these residues (R50 and K54) were mutated to Ala, and the resulting mutant AtHMGB3 tested for its ability to activate MPK3/6 and induce callose deposition in the absence or presence of SA. The R50A/K54A mutant AtHMGB3 retained its ability to activate MPK3/6 and induce callose deposition, but inhibition of these activities by SA was lost (FIG. 7H,I and FIG. 8).

O=C(O)c1ccccc1O [SA, salicylic acid]
effect on fibroblast migration induced by fMLP [1]: did not affect
suppression of cytokine (IL-6, TNFα) and COX-2 expression induced by HMGB1^SS (HMGB1^SS): partially or completely suppressed; also recorded: partially suppressed
effect on Pep1-induced callose deposition (Pep1): unaffected
inhibition of crosslinking of 4AzSA to HMGB1 (HMGB1 [2]): effectively inhibited crosslinking
inhibition of fibroblast migration in WT and Ptgs2-/- MEFs (HMGB1 [3]): effectively inhibited
inhibition by SA of callose deposition induced by R50A/K54A AtHMGB3 (R50A/K54A mutant AtHMGB3): lost
